Results: paper PMC9127750, “Structure-based design of CDC42 effector interaction inhibitors for the treatment of cancer” (Cell reports, 2022)
Values joined by “and” are separate entries in the source; they are usually repeats but may differ in a detail not shown here. Identical values can stand only once.

System: WM3248 melanoma cells, 486 antibodies
Assay: Reverse phase protein arrays (RPPA)
Type: cell-based, Human
Details: 5 uM
Description: Pellets were snap frozen in liquid nitrogen and shipped to MD Anderson Cancer Center core RPPA facility for RPPA analysis (Table S5). Three biological replicates for each sample were generated.
Nomenclatures on the RPPA heatmaps: name_of_antibody.species_of_antibody.status_of_antibody. V - antibody validated; C - validation of antibody in progress; Q - antibody nonspecific; E – under evaluation; antibodies raised in M - mouse, G - goat, R - rabbit, or T - rat.

CN(C)c1cccc(Nc2cc(-c3ccccc3)nc(C3CCNCC3)n2)c1 [ARN22089, N1,N1-dimethyl-N3-(6-phenyl-2-(piperidin-4-yl)pyrimidin-4-yl)benzene-1,3-diamine]
RPPA level IGF1R_pY1135_Y1136.R.V (single replicates): 0.923 and 1.035 and 1.147
RPPA level IGFBP2.R.V (single replicates): 0.536 and 0.864 and 1.227
RPPA level IGFBP3.M.V (single replicates): 0.749 and 0.955 and 1.168
RPPA level IGFRb.R.C (single replicates): 0.930 and 1.171
RPPA level IL.6.R.C (single replicates): 0.941 and 1.064 and 1.146
RPPA level IMP3.R.C (single replicates): 0.986 and 0.965
RPPA level INPP4b.R.C (single replicates): 1.116 and 0.899 and 0.832
RPPA level IR.b.R.C (single replicates): 1.320 and 1.103
RPPA level IRF.1.R.V (single replicates): 0.717 and 1.139 and 1.144
RPPA level IRF.3.R.V (single replicates): 0.919 and 1.034
RPPA level IRS1.R.V (single replicates): 0.981
RPPA level IRS2.R.C (single replicates): 0.999 and 0.927 and 0.986
RPPA level JAB1.M.C (single replicates): 1.009 and 0.971
RPPA level JNK2.R.V (single replicates): 0.702 and 1.165 and 0.800
RPPA level JNK_pT183_Y185.R.C (single replicates): 0.946 and 1.035 and 1.097
RPPA level Jagged1.R.V (single replicates): 0.958 and 1.186 and 0.974
RPPA level Jak2.R.V (single replicates): 0.877 and 1.121
RPPA level KAP1.R.V (single replicates): 1.023 and 0.961 and 0.759
RPPA level KEAP1.R.V (single replicates): 1.060 and 0.798 and 0.885
RPPA level LAD1.R.V (single replicates): 0.906 and 1.221 and 0.985
RPPA level LC3A.B.R.C (single replicates): 0.962 and 0.690
RPPA level LCN2.R.V (single replicates): 2.079 and 0.667 and 0.750
RPPA level LDHA.R.C (single replicates): 1.269 and 0.924 and 0.174
RPPA level LRP6_pS1490.R.V (single replicates): 0.923 and 1.082 and 1.190
RPPA level Lasu1.R.V (single replicates): 0.830 and 0.833
RPPA level Lck.R.V (single replicates): 0.914 and 1.025 and 0.835
RPPA level Lyn.R.V (single replicates): 0.857 and 0.712
RPPA level MACC1.R.V (single replicates): 0.983 and 0.952 and 1.126
RPPA level MAPK_pT202_Y204.R.C (single replicates): 0.962 and 0.989 and 1.287
RPPA level MCT4.R.V (single replicates): 0.631 and 1.046 and 1.198
RPPA level MDM2_pS166.R.V (single replicates): 0.981 and 1.059 and 0.658
RPPA level MEK1.R.V (single replicates): 0.979 and 2.685
RPPA level MEK1_pS217_S221.R.V (single replicates): 0.968 and 1.488 and 0.918
RPPA level MEK2.R.V (single replicates): 1.028 and 1.188 and 0.905
RPPA level MERIT40.R.C (single replicates): 0.976 and 0.913
RPPA level MERIT40_pS29.R.V (single replicates): 0.986 and 0.944
RPPA level METTL3.R.V (single replicates): 1.157 and 0.890 and 0.714
RPPA level MIF.R.C (single replicates): 0.954 and 1.000
RPPA level MIG6.R.V (single replicates): 1.004 and 0.977
RPPA level MITF.R.V (single replicates): 1.035 and 0.897
RPPA level MLH1.M.V (single replicates): 0.967 and 0.818
RPPA level MLKL.R.V (single replicates): 0.948
RPPA level MMP2.R.V (single replicates): 1.053 and 0.940 and 0.993
RPPA level MMP14.R.V (single replicates): 0.806 and 0.852 and 1.235
RPPA level MR1.M.C (single replicates): 0.985 and 1.126 and 0.989
RPPA level MRAP.R.C (single replicates): 1.027 and 1.099 and 1.056
RPPA level MSH2.R.C (single replicates): 0.981 and 0.975 and 0.839
RPPA level MSH6.R.C (single replicates): 0.974 and 1.034 and 0.768
RPPA level MSI2.R.C (single replicates): 1.007 and 0.996 and 1.009
RPPA level MTCO1.M.V (single replicates): 1.026 and 0.959 and 0.846
RPPA level MTSS1.M.C (single replicates): 0.922 and 1.002
RPPA level Mcl.1.R.V (single replicates): 0.903 and 1.197 and 1.129
RPPA level MelanA.R.C (single replicates): 0.929 and 1.064 and 1.083
RPPA level Melanoma.gp100.R.C (single replicates): 0.903 and 1.116 and 1.163
RPPA level Merlin.R.C (single replicates): 0.905 and 1.160 and 0.615
RPPA level Midkine.R.V (single replicates): 1.000 and 0.968 and 1.034
RPPA level Mitofusin.1.R.V (single replicates): 0.993 and 1.106 and 1.060
RPPA level Mitofusin.2.R.V (single replicates): 0.878 and 0.979
RPPA level Mnk1.R.V (single replicates): 1.011 and 1.102
RPPA level mTOR.R.V (single replicates): 1.085 and 1.120 and 0.844
RPPA level mTOR_pS2448.R.C (single replicates): 1.164 and 0.821
RPPA p21.R.C (single replicates): 1.391 and 0.730 and 1.025
RPPA p27.Kip1.R.C (single replicates): 1.014 and 0.921 and 0.908
RPPA p27_pT157.R.C (single replicates): 0.998 and 1.050 and 0.780
RPPA p27_pT198.R.V (single replicates): 0.905 and 1.281 and 1.122
RPPA p38.MAPK.R.V (single replicates): 1.001 and 1.097
RPPA p38.MAPK._pT180_Y182.R.V (single replicates): 0.866 and 2.597 and 1.276
RPPA p38.a.M.V (single replicates): 1.063 and 0.940 and 0.948
RPPA p44.42.MAPK.R.V (single replicates): 1.135 and 1.025 and 0.778
RPPA p53.R.C (single replicates): 0.836 and 1.157 and 1.162
RPPA p70.S6K1.R.V (single replicates): 1.053 and 0.972
RPPA p70.S6K_pT389.R.V (single replicates): 0.923 and 1.455 and 1.050
RPPA p90RSK_pT573.R.C (single replicates): 1.055 and 0.692
RPPA DNMT1.R.V (single samples): 0.942 and 1.005
RPPA DRP1.R.V (single samples): 1.048 and 0.924 and 1.058
RPPA DUSP4.R.V (single samples): 1.207
RPPA DUSP6.R.C (single samples): 1.757
RPPA DYRK1B.R.C (single samples): 1.023 and 0.961 and 1.055
RPPA Dvl3.R.V (single samples): 0.942 and 1.023 and 1.077
RPPA E2F1.R.V (single samples): 0.971 and 1.007 and 0.906
RPPA E.Cadherin.R.V (single samples): 0.967 and 0.935 and 0.968
RPPA EGFR.R.V (single samples): 0.950 and 1.055 and 0.936
